From patent US7714014B2, “Targeting GLI proteins in human cancer by small molecules” (The Regents of the University of California, priority 2005, dated 2010) come the findings set out here.

Assay [1] relates to human SOCS3 promoter in NSCLC cell line A549. Kind of assay: SOCS3 promoter-luciferase reporter assay. The assay is classed as cell-based. Conditions: A549, 30 μM, 18-24 hours. The procedure: One day before transfection, cells (1×10^5) were plated in 12-well plates with growth medium without antibiotics. When cells reached 80-90% of confluence they were co-transfected using 0.5 μg of each promoter construct in pGL3Basic vector and 0.025 μg pRL-TK Vector (Promega; Madison, Wis.) containing Renilla Luciferase as an internal control for the transformation efficiency. Lipofectamine 2000™ (Invitrogen Life Technologies) was used to mediate transfection for about 6 hours. Then the medium was replaced with fresh medium containing various small molecule compounds at a concentration of 30 μM, and the resulting cells were cultured for an additional 18-24 hours and subjected to luciferase assay. Briefly, cells were lysed in a lysis buffer and Firefly and Renilla Luciferase activities in cells of each well, were measured using Dual-Luciferase Assay System (Promega) and an illuminometer. The measured luciferase activities were normalized to pRL-TK Vector activity and were given relative to the basal activity of empty pGL3-Basic Vector, which was set to unity. The data shown represent mean values (±S.D.). All measurements were performed in triplicate and repeated in at least three independent experiments. The human Wnt-2 promoter-luciferase construct, the human SOCS3 promoter-Luciferase construct and the human Gremlin promoter-luciferase construct were cloned and characterized in the laboratory of Dr. Jablons at the University of California, San Francisco (San Francisco, Calif.; He et al., Biochem Biophy Res Comm, 2003; and unpublished data). The 6GLI-TKO-luciferase construct (containing 6 repeats of consensus GLI DNA binding sequence) was kindly provided by Dr. Matthias Hebrok's laboratory at the University of California, San Francisco (San Francisco, Calif.).
As a third specificity test for the small molecule compounds of the present invention, the ability of these compounds to regulate the expression of genes that are not down-stream targets of the Gli activation was analyzed. SOCS3, an inhibitor and down-stream target gene of JAK/STAT pathway was chosen for this experiment. Expression of SOCS3 is not under control of Gli and/or Wnt activation. Furthermore, no GLI and TCF binding sites were found in the human SOCS3 promoter cloned in the laboratory of Dr. Jablons (University of California, San Francisco; data not shown). Thus, SOCS3 promoter-luciferase reporter activity was measured after the treatment of the NSCLC cell line A549 with small molecule compounds FN1-5, FN1-7, FN1-8, and FN1-9U.
For orientation: Reporter assays use an easily measured gene product as a stand-in for the process of interest.

The subject of a further assay is Colon Cancer HT29 tumor. Description: Mouse Xenograft Model (Colon Cancer HT29). It is filed as in vivo. The procedure: The small molecule compound FN1-8 was tested in vivo in the mouse xenograft model bearing human cancer cells. Briefly, female athymic nude mice strain NCRNU-M (5-10 weeks old, 20-25 grams in weight; Taconic, Germantown, N.Y.) was maintained in pathogen-free conditions. Three human cancer cell lines: NSCLC H460, melanoma LOX, (both showing Gli3 activation), and colon cancer HT29 (no Gli3 activation, as a negative control), were used. Ten mice were used in each group and injected s.c. with 3×10^6 cancer cells in the dorsal area in a volume of 100 μl. After inoculation, human cancer cells were allowed to grow in mice for 7 days to become visible tumor nodules. Animals were then injected with small molecule compound FN1-8 at a dose of 50 mg/kg body weight (1 mg/mouse per day). DMSO alone was used as control. The compounds and controls were adjusted in 40 ul volume for i.p. injection in the abdomens of the mice. […] Tumor size was measured every three days, and tumor volumes were calculated using width (x) and length (y) (x^2y/2, where x<y). […]
In vivo efficacy study of small molecule compound FN1-8 were also performed using a negative Mouse Xenograft Model (Colon Cancer HT29). […] Tumor size was measured with a caliper every three days. Tumor volumes were calculated using the equation x^2y (where x<y). […]

Assay [2] relates to Tcf-mediated gene transcription (canonical Wnt signaling) in colon cancer cell line SW480. Kind of assay: TOPFLASH (TOP/FOP) assay. It is filed as cell-based, human. As to the method:
Cells were plated in 12-well plates. The TOPFLASH or FOPFLASH reporter plasmid (Upstate; Charlottesville, Va.) was transfected transiently into cells as described above. Tcf-mediated gene transcription was determined by the ratio of pTOPFLASH:pFOPFLASH luciferase activity, each was normalized to luciferase activities of the pRL-TK reporter (co-transfected internal control). All experiments were performed in triplicate, and repeated three times.
Regulation of TOP/FOP activity by the same compounds as described above was also analyzed in the colon cancer cell line SW480.

Another assay concerns HT29 (colon cancer). Kind of assay: Apoptosis analysis (Annexin V FITC, flow cytometry). The assay is classed as cell-based, human. Conditions: for % of apoptotic cells: about 3 days. The procedure:
Apoptosis was analyzed by using an Annexin V FITC Apoptosis Detection Kit (Biosource, Camarillo, Calif.), according to the manufacturer's protocol. After treatment with different small molecule compounds at various concentrations for about 3 days, cells were harvested by trypsinization, stained and immediately analyzed by flow cytometry (FACScan; Decton Dickinson, Franklin Lake, N.J.). Early apoptotic cells with exposed phosphatidylserine but intact cell membranes will bind to Annexin V-FITC, but not propidium iodide (PI). Cells in necrotic or late apoptotic stages will be labeled with both Annexin V-FITC and PI. “% apoptotic cells” or “% apoptosis” refers to the combined early and late apoptotic cells.
Flow cytometry was used to examine apoptosis in colon cancer cell line HT29 after treatment of cells with small molecule compounds FN1-5 and FN1-8. While FN1-5 induced apoptosis in HT29 cells (at 50 μM 35% apoptotic cells were observed; Table 2), no apoptosis was observed after treatment with FN1-8 (Table 3).
(In general: Flow cytometry measures light scatter and fluorescence of single cells or particles in a stream.)

The structures appear in SMILES notation. “Also recorded” adds a separate entry of the source.

`O=C(NCCCCCO)C1C(c2ccccc2)=NN(c2ccccc2)C1c1ccccc1` (stereo not drawn) [FN1-5, N-(5-Hydroxypentyl)-1,3,5-triphenyl-4,5-dihydro-pyrazole-4-carboxyamide]: the SOCS3 promoter activity entry in assay [1] is “inactive; also recorded: do not regulate SOCS3 promoter activity”. In addition, the tumor weight result in the assay with Colon Cancer HT29 tumor (15 mg/kg daily 2×6 days then 30 mg/kg daily 1×6 days i.p., 43 days after inoculation) was “slightly decreased the tumor weight”. Moreover, the TOP/FOP activity entry in assay [2] was “lesser effect”. Further, the “% of apoptotic cells” value in the assay with HT29 (colon cancer) (HT29, 10 μM) was 5.8%; with HT29 (colon cancer) (HT29, 30 μM), 15.5%; in the assay with HT29 (colon cancer) (HT29, 50 μM), 32.9%.
For `O=C(NCCc1ccc(O)cc1)C1C(c2ccccc2)=NN(c2ccccc2)C1c1ccccc1` (stereo not drawn) [FN1-8, N-(2-(4-Hydroxyphenyl)ethyl)-1,3,5-triphenyl-4,5-dihydro-pyrazole-4-carboxyamide], the SOCS3 promoter activity result in assay [1] is “inactive; also recorded: do not regulate SOCS3 promoter activity”. Also, in the assay on Colon Cancer HT29 tumor (50 mg/kg i.p. daily for 2×6 days), the tumor growth entry is given as “not affected”. Moreover, the “reduction of TOP/FOP activity” value in assay [2] is “about 32%”. Moreover, the “% of apoptotic cells” value in the assay on HT29 (colon cancer) (HT29, 30 μM) was 3.1%; in the assay with HT29 (colon cancer) (HT29, 50 μM) it was 5.3%. The apoptosis induction result in the assay with HT29 (colon cancer) (HT29, flow cytometry) is “no apoptosis”.
